The subject of data set [1] is Ralstonia solanacearum strain Pss190. As to conditions: Rs Pss190; optimal minimal medium, crude peptides (Table 9).
The next data set has as its system Pcc. The data set can be described thus: In planta pathogen inoculation assay, lesion diameter. It is filed as in vivo, Pectobacterium carotovorum subsp. carotovorum. Conditions: detached leaves of tomato L390 and leaves of Arabidopsis Col0; final peptide concentration 16 μg/mL; 16 to 28 hours post-inoculation.
For data set [2], the system named is Candida albicans 12-99 (fluconazole-resistant).
The next data set relates to Botrytis cinerea. It is filed as cell-based. On the procedure:
(§1) The experiments were conducted in an optimal minimal medium for each pathogen. The media and growth conditions were described in Tables 2 and 3. MIC and MBC values were determined following the procedures described above. […] Fifty microliters of serially diluted peptides (2-fold the final concentration) were added in a 96-well polystyrene plate with 50 μL of the fungal spore suspension. […] The plates were incubated at an optimal temperature without shaking. […] MFC was determined as the lowest peptide concentration at which no fungal growth was observed.

The subject of the next data set is Erwinia chrysanthemi. It is filed as cell-based. How it is done: (§2) The effect of peptide length on the antimicrobial activity was investigated by deciding the minimal inhibitory concentration (MIC) and minimal bactericidal concentration (MBC) for each peptide against the pathogen with the media and growth conditions of phytopathogenic bacteria and E. coli as described in Table 1. Single bacterial colony grown on an optimal rich agar medium was picked, and each grew in 3 mL of the same rich liquid medium for 4 to 6 h. For experiments carried out in the rich medium, the bacterial broth culture was then diluted in the same medium to give a final concentration of OD600=0.08, and then further diluted 100 folds in the same medium. For experiments carried out in the minimal medium, the bacterial cells were collected from the bacterial liquid culture by centrifugation, re-suspended in an optimal minimal medium to give a final concentration of OD600=0.08, and then further diluted 100 folds in the same minimal medium. Fifty microliters of serially diluted peptides (2-fold the final concentration) were added in a 96-well polystyrene plate with 50 μL of the bacterial culture. […] The plates were incubated at an optimal temperature without shaking. […] MBC was determined as the lowest peptide concentration at which no colonies formed. The experiments were conducted in an optimal minimal medium for each pathogen. The media and growth conditions were described in Tables 2 and 3. MIC and MBC values were determined following the procedures described above. […] Fifty microliters of serially diluted peptides (2-fold the final concentration) were added in a 96-well polystyrene plate with 50 μL of the fungal spore suspension.

Data set [3] concerns Pectobacterium carotovorum subsp. carotovorum. It counts as cell-based. On the procedure:
as §2

Data set [4] relates to bacteria, fungal spores, and fungal mycelia. It is filed as cell-based. As to conditions: SYTOX Green, crude peptides, room temperature in dark for 2 h.
The next data set concerns Bc. The data set is described as follows: In planta pathogen inoculation assay, lesion diameter. It counts as in vivo, Botrytis cinerea. As to conditions: detached leaves of tomato L390 and leaves of Arabidopsis Col0; final peptide concentration 16 μg/mL; 47 to 70 hours post-inoculation.
The test system of another data set is Cgl FST02. It is filed as cell-based, Colletotricum gloeosporioides. On the procedure: as §1
The test system of data set [5] is Candida albicans 89 (echinocandin-resistant).
Data set [6] concerns Ralstonia solanacearum strain Pss4. Conditions: Rs Pss4; optimal minimal medium, crude peptides (Table 9).
Data set [7] has as its system Staphylococcus aureus BCRC 10777.
The test system of data set [8] is Acinetobacter baumannii ATCC 17978.
The test system of data set [9] is Staphylococcus epidermidis ATCC 14990.
Data set [10] is described as follows: Circular dichroism spectroscopy, secondary structure deconvolution. As to conditions: for α-helix content: dissolved in water, structural deconvolution of CD spectra. On the technique in general: Circular dichroism is the unequal absorption of left and right circularly polarised light.
For data set [11], the system named is Agrobacterium tumefaciens strain Atu C58C1. Conditions: rich medium, 24 h, purified peptides.
Data set [12] relates to Escherichia coli strain DH5a. As to conditions: Eco DH5α; rich medium, 24 h, purified peptides.
Data set [13] relates to Xanthomonas campestris pv. campestris strain Xcc17. The data set can be described thus: IC50 of bacterial growth (OD600) in rich liquid medium. It counts as cell-based. As to conditions: Xcc Xcc17, 24 h, purified peptides. On the procedure:
(§3) To measure the antimicrobial activity, single colony grown on an optimal rich agar medium for each bacterium was picked and grew in 3 mL of the same rich liquid medium for 4 to 6 h. The bacterial culture was then diluted in the same medium to give a final concentration of OD600=0.08 and then further diluted […] in the same medium. In each well of a 96-well polystyrene plate, 90 μL of the diluted culture was mixed with 10 μL of the peptide to give a peptide concentration of 0, 2, 10, and 20 μg/mL (final cell concentration is 5×10^5 CFU/mL). OD600 was measured after incubation at an optimal temperature for 24 h. IC50 was determined as the lowest peptide concentration inhibiting 50% of bacterial growth.

The subject of data set [14] is Xanthomonas euvesicatoria strain Xvt28. The description is as above. It counts as cell-based. Conditions: Xev Xvt28, 24 h, purified peptides. On the procedure: as §3
Data set [15] concerns Xanthomonas oryzae pv. oryzae strain Xoo28. As to conditions: Xoo Xoo28; rich medium, 24 h, purified peptides.
The mark [16] stands for this setting: Candida albicans SC5314 (Tables 10, 14).
Where [17] appears, read: Candida albicans SC5314, 48 h at 35° C., 0.125 to 64 μg/mL (Table 5).

Converted amounts (≈) assume the structure as drawn. Read-outs that look alike come from different tables or passages of the source. Residues, ends and D or L forms follow the SMILES beside them. *: point of attachment. Myristoyl = CCCCCCCCCCCCCC(=O)*

Consider `CCCCCCCCCCCCCC(=O)N[C@@H](Cc1c[nH]c2ccccc12)C(=O)N[C@@H](CCCCN)C(=O)N[C@@H](CCCCN)C(=O)N[C@@H](CC(C)C)C(=O)N[C@@H](CCCCN)C(=O)N[C@@H](CCCCN)C(=O)N[C@@H](CC(C)C)C(=O)N[C@@H](CC(C)C)C(=O)N[C@@H](CCCCN)C(=O)N[C@@H](CCCCN)C(=O)N[C@@H](CC(C)C)C(=O)N[C@@H](CCCCN)C(=O)N[C@@H](CCCCN)C(=O)N[C@@H](CC(C)C)C(N)=O` [pepD2M] (Myristoyl-WKKLKKLLKKLKKL-NH2), for which the MBC/MFC in data set [1] is 8.0 µg/mL (≈ 3.99 µM); against Botrytis cinerea, 12.0 µg/mL (≈ 5.99 µM); in the data set on Erwinia chrysanthemi it was 6.0 µg/mL (≈ 2.99 µM); in [3], 4.0 µg/mL (≈ 2 µM); against Cgl FST02 (Cgl FST02, optimal minimal medium, crude peptides (Table 9)) it was 16.0 µg/mL (≈ 7.98 µM); in [6] it was 10.0 µg/mL (≈ 4.99 µM). For the same compound, the MIC – broadly, the lowest concentration found to suppress growth – in [1] is 8.0 µg/mL (≈ 3.99 µM); in data set [2], 8 µg/mL (≈ 3.99 µM); in the data set on Candida albicans SC5314 (setting [16]), 32 µg/mL (≈ 16 µM); in the data set on Erwinia chrysanthemi, 4.0 µg/mL (≈ 2 µM); in data set [3] it was 4.0 µg/mL (≈ 2 µM); in data set [5] it was 32 µg/mL (≈ 16 µM). This compound showed an MIC in data set [6] of 8.0 µg/mL (≈ 3.99 µM). Moreover, in the data set on Pcc, the “disease lesions caused by Pcc” value was “significantly reduced disease lesions”. The MFC in data set [2] amounted to 64 µg/mL (≈ 31.9 µM); against Botrytis cinerea it was 18.7 µg/mL (≈ 9.33 µM); against Candida albicans SC5314 (setting [16]), 64 µg/mL (≈ 31.9 µM); against Cgl FST02 it was 14.0 µg/mL (≈ 6.98 µM); in data set [5] it was 64 µg/mL (≈ 31.9 µM). Also, the “membranolytic effect on the cell walls of bacteria, fungal spores, and fungal mycelia” value in [4] is on record as “significant membranolytic effect”. In the data set on Bc, the “disease lesions caused by Bc” value was “significantly reduced disease lesions”.

With `CCCCCCCCCCCCCC(=O)N[C@@H](Cc1c[nH]c2ccccc12)C(=O)N[C@@H](CCCCN)C(=O)N[C@@H](CCCCN)C(=O)N[C@H](C(=O)N[C@@H](CCCCN)C(=O)N[C@@H](CCCCN)C(=O)N[C@@H](CC(C)C)C(=O)N[C@H](C(=O)N[C@@H](CCCCN)C(=O)N[C@@H](CCCCN)C(=O)N[C@@H](CC(C)C)C(N)=O)C(C)C)C(C)C` [pepD3(V)M] (Myristoyl-WKKVKKLVKKL-NH2), the MBC in data set [7], in data set [8] and in data set [9] was 16 µg/mL (≈ 9.95 µM) in each case. Besides, the MIC in data set [7] and in data set [9] was 16 µg/mL (≈ 9.95 µM) throughout.

Regarding `CCCCCCCCCCCCCC(=O)N[C@@H](Cc1c[nH]c2ccccc12)C(=O)N[C@@H](CCCCN)C(=O)N[C@@H](CCCCN)C(=O)N[C@@H](CC(C)C)C(=O)N[C@@H](CCCCN)C(=O)N[C@@H](CCCCN)C(=O)N[C@@H](CC(C)C)C(=O)N[C@@H](CC(C)C)C(=O)N[C@@H](CCCCN)C(=O)N[C@@H](CCCCN)C(=O)N[C@@H](CC(C)C)C(N)=O` [pepD3M] (Myristoyl-WKKLKKLLKKL-NH2), the MBC/MFC in data set [1] amounted to 14.0 µg/mL (≈ 8.56 µM); with Botrytis cinerea it was 6.0 µg/mL (≈ 3.67 µM); against Erwinia chrysanthemi, 6.0 µg/mL (≈ 3.67 µM); in data set [3] it was 4.0 µg/mL (≈ 2.45 µM); against Cgl FST02, 14.0 µg/mL (≈ 8.56 µM); in [6] it was 12.0 µg/mL (≈ 7.34 µM). The MIC came out at 12.0 µg/mL (≈ 7.34 µM) in data set [1]; 5.3 µg/mL (≈ 3.24 µM) against Botrytis cinerea; 5.0 µg/mL (≈ 3.06 µM) in the data set on Erwinia chrysanthemi; 4.0 µg/mL (≈ 2.45 µM) in data set [3]; 14.0 µg/mL (≈ 8.56 µM) in the data set with Cgl FST02; 8.0 µg/mL (≈ 4.89 µM) in [6]. For the same compound, the “disease lesions caused by Pcc” value in the data set on Pcc is given as “significantly reduced disease lesions”. Further, the “membranolytic effect on the cell walls of bacteria, fungal spores, and fungal mycelia” value in data set [4] is recorded as “significant membranolytic effect”. In addition, the “disease lesions caused by Bc” value with Bc is on record as “significantly reduced disease lesions”.

Consider `CCCCCCCCCCCCCC(=O)N[C@@H](Cc1c[nH]c2ccccc12)C(=O)N[C@@H](CCCCN)C(=O)N[C@@H](CCCCN)C(=O)N[C@H](C(=O)N[C@@H](CCCCN)C(=O)N[C@@H](CCCCN)C(=O)N[C@H](C(=O)N[C@H](C(=O)N[C@@H](CCCCN)C(=O)N[C@@H](CCCCN)C(=O)N[C@H](C(=O)N[C@@H](CCCCN)C(=O)N[C@@H](CCCCN)C(=O)N[C@H](C(N)=O)C(C)C)C(C)C)C(C)C)C(C)C)C(C)C` [pepV2M] (Myristoyl-WKKVKKVVKKVKKV-NH2), for which the minimal bactericidal concentration (MBC) in data set [7], in data set [8] and in [9] was 16 µg/mL (≈ 8.27 µM) each time. In addition, the MIC in data set [7] amounted to 8 µg/mL (≈ 4.14 µM); in [9], 16 µg/mL (≈ 8.27 µM).

Ac-WKLLKKLLKLLKKLLKLL-NH2 [pepB] had a α-helix formation in [10] (10% TFE) of 90%. Also, in [10], the α-helix content result is recorded as “about 25%”. The IC50 (as a rule, the concentration that inhibits the measured activity by half) in [11] is “— (“—” indicates no antimicrobial activity being detected at the highest peptide concentration (20 μg/mL) tested in this study.)”; in [12] it was “— (“—” indicates no antimicrobial activity being detected at the highest peptide concentration (20 μg/mL) tested in this study.)”; in [13], “— (“—” indicates no antimicrobial activity being detected at the highest peptide concentration (20 μg/mL) tested in this study.)”; in [14], 16.7 µg/mL; in data set [15], “— (“—” indicates no antimicrobial activity being detected at the highest peptide concentration (20 μg/mL) tested in this study.)”. Also, the MIC result with Candida albicans SC5314 (setting [17]) is “— (“—” indicates no antimicrobial activity being detected at the highest peptide concentration (64 μg/mL) tested.)”.

With WKLLKLLLKLLKLLLKLL [pepA], in [10], the α-helix content result was “over 90%”. For the same compound, the IC50 result in data set [11], in data set [12], in data set [13], in [14] and in [15] was “— (“—” indicates no antimicrobial activity being detected at the highest peptide concentration (20 μg/mL) tested in this study.)” each time. For the same compound, the MIC entry with Candida albicans SC5314 (setting [17]) is “— (“—” indicates no antimicrobial activity being detected at the highest peptide concentration (64 μg/mL) tested.)”.

Values taken from patent US20240101602A1, “ANTIMICROBIAL PEPTIDES AND METHOD OF PREVENTING OR TREATING INFECTION BY USING THE SAME” (priority 2020, published 2024).
